# According to ChEMBL document CHEMBL5338745, “Factor XIa Inhibitors in Anticoagulation Therapy: Recent Advances and Perspectives” (J Med Chem, 2023):
# Tests used:
# [1] = Half life in IG dosed Beagle dog measured upto 24 hrs by LC/MS analysis; type: ADME, organism-based, Canis lupus familiaris; details: in vivo, po
# Plasma kallikrein [2] = target: T1, Plasma kallikrein (Homo sapiens, UniProt P03952)
# [3] = Oral bioavailability in Beagle dog measured upto 24 hrs by LC/MS analysis; type: ADME, organism-based, Canis lupus familiaris; details: in vivo
# Coagulation factor XI [4] = target: T2, Coagulation factor XI (Homo sapiens, UniProt P03951); test: Inhibition of human FXIa by absorbance based analysis
# T2 sequence (P03951 19-387 limits assumed): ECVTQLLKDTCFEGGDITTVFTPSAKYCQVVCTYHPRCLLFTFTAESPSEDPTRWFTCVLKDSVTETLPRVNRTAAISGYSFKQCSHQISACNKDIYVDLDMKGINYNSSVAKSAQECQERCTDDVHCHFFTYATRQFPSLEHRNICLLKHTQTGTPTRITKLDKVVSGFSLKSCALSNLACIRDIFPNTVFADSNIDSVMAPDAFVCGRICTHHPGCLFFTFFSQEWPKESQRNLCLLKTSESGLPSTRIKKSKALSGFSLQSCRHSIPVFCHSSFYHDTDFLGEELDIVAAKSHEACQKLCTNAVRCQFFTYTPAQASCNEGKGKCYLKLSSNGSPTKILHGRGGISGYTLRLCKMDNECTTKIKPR
# T2 sequence (P03951 388-625 limits assumed): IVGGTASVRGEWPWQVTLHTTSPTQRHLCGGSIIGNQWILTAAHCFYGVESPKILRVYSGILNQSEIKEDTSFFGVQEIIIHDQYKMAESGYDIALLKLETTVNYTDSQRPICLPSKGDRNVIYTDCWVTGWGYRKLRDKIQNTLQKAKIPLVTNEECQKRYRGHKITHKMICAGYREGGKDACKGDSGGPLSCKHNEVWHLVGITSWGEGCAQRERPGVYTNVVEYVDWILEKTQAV
# Coagulation factor XI [5] = target: T2, Coagulation factor XI; test: Inhibition of FXIa (unknown origin)
# [6] = Solubility of the compound; type: physicochemical
# [7] = Clearance in rat; type: ADME; details: in vivo
# [8] = Half life in rat; type: ADME; details: in vivo
# [9] = Half life in mouse; type: ADME, organism-based; details: in vivo
# [10] = Oral bioavailability in mouse; type: ADME, organism-based; details: in vivo
# [11] = Selectivity index, ratio IC50 for FXIa (unknown origin) to IC50 for FD (unknown origin)
# Plasma [12] = test: Anticoagulant activity in human plasma assessed as concentration required to double the prothrombin time; type: functional
# Complement factor D = Complement factor D (Homo sapiens, UniProt P00746); test: Inhibition of FD (unknown origin)
# Complement factor D, sequence (P00746 whole entry): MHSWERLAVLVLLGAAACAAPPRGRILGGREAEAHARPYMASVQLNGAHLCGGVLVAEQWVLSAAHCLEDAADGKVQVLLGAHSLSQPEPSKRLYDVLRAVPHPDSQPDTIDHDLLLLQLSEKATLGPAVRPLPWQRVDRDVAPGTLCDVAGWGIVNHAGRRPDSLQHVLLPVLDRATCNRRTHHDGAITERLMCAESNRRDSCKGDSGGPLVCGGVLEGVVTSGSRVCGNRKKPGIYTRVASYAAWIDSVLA
# [13] = Clearance in mouse; type: ADME, organism-based; details: in vivo
# Plasma [14] = test: Anticoagulant activity in human plasma assessed as concentration required to double the activated partial thromboplastin time; type: functional
# [15] = Half life in Sprague-Dawley rat at 1 mg/kg, iv by LC-MS/MS analysis; type: ADME, organism-based; details: in vivo
# [16] = Oral bioavailability in Sprague-Dawley rat at 2 mg/kg by LC-MS/MS analysis; type: ADME, organism-based; details: in vivo
# [17] = Metabolic stability in dog liver microsomes assessed as half life; type: ADME, Canis lupus familiaris, Microsome
# [18] = Metabolic stability in mouse liver microsomes assessed as half life; type: ADME, Microsome
# [19] = Oral bioavailability in Sprague-Dawley rat incubated upto 24 hrs by LC-MS/MS analysis; type: ADME, organism-based; details: in vivo
# [20] = Half life in Sprague-Dawley rat at 1 mg/kg, iv; type: ADME, organism-based; details: in vivo
# [21] = Half life in Sprague-Dawley rat at 5 to 10 mg/kg, po by LC-MS/MS analysis; type: ADME, organism-based; details: in vivo, dose 5-10 mg/kg
# [22] = Oral bioavailability in Sprague-Dawley rat at 5 to 10 mg/kg by LC-MS/MS analysis; type: ADME, organism-based; details: in vivo, dose 5-10 mg/kg
# [23] = Clearance in Sprague-Dawley rat at 5 to 10 mg/kg, po by LC-MS/MS analysis; type: ADME, organism-based; details: in vivo, dose 5-10 mg/kg
# [24] = MRT in iv dosed rat measured upto 8 hrs by LC-MS/MS analysis; type: ADME, organism-based; details: in vivo
# [25] = Clearance in Sprague-Dawley rat at 1 mg/kg, iv; type: ADME, organism-based; details: in vivo
# Plasma [26] = test: Anticoagulant activity in human plasma assessed as concentration required to 1.5 times activation of partial thromboplastin time; type: functional
# Plasma kallikrein [27] = target: T1, Plasma kallikrein; test: Binding affinity to PKal (unknown origin) assessed as inhibition constant
# Coagulation factor XI [28] = target: T2, Coagulation factor XI; test: Binding affinity to FXIa (unknown origin) assessed as inhibition constant
# T1 sequence (P03952 20-390 limits assumed): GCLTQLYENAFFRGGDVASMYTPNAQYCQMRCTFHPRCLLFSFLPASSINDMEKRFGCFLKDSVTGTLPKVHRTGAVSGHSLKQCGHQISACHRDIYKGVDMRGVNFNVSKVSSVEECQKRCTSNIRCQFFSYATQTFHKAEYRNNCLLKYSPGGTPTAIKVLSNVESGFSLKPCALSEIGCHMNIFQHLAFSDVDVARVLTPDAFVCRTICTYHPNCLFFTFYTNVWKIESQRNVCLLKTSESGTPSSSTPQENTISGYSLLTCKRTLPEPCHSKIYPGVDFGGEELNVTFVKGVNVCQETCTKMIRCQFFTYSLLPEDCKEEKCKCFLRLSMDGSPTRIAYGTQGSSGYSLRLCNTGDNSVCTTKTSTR
# T1 sequence (P03952 391-638 limits assumed): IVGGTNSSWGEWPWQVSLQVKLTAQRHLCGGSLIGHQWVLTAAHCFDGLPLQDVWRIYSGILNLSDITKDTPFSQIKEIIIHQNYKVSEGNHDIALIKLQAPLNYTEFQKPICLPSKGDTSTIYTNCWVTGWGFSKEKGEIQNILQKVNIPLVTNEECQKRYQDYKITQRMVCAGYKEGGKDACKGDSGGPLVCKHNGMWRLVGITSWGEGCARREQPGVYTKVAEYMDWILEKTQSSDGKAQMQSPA
smiles,measurement,setting,value
COc1nn([C@@H](Cc2ccccc2)C(=O)Nc2ccc(C(=O)O)cc2)c(=O)cc1-c1cc(Cl)ccc1C(C)=O,half-life,[1],4.5 h
same,Ki,Plasma kallikrein [2],103 nM
same,bioavailability,[3],49.6%
same,Ki,Coagulation factor XI [4],1.6 nM
O=C(/C=C/c1cc(Cl)ccc1-n1cnnn1)N[C@@H](CC(=O)N1CCN(c2ccccc2)CC1)C(=O)Nc1ccc(C(=O)O)cc1,IC50,Coagulation factor XI [5],7.1 nM
same,solubility,[6],> 5200 µg/mL
same,clearance,[7],9.2 mL/min/kg
same,IC50,Plasma kallikrein [2],> 14000 nM
same,half-life,[8],1.26 h
CC(C)c1cc(-c2ccc3c(c2)[C@H](N)CO3)cc([C@@H](O)CN2CCc3cccc(C(=O)O)c32)c1,half-life,[9],3.73 h
same,IC50,Coagulation factor XI [5],0.4 nM
same,bioavailability,[10],100%
same,Ratio IC50,[11],10000
same,EC,Plasma [12],28.7 µM
same,IC50,Complement factor D,> 5000 nM
same,IC50,Plasma kallikrein [2],1 nM
same,clearance,[13],11 mL/min/kg
same,EC,Plasma [14],1.3 µM
Nc1ccc(-c2[nH]c(Cn3c4c(c(-c5cc(Cl)ccc5-n5cnnn5)cc3=O)C(=O)CC4)nc2F)c(F)n1,IC50,Coagulation factor XI [5],0.32 nM
Nc1ccc(-c2nc(F)c([C@@H]3[C@H]4C[C@H]4c4cc(-c5cc(Cl)ccc5-n5cnnn5)cc(=O)n43)[nH]2)c(F)n1,IC50,Coagulation factor XI [5],3.3 nM
same,half-life,[15],1.6 h
same,bioavailability,[16],25.3%
COCC[C@@H](C(=O)Nc1ccc2nn(C)cc2c1)N1CC(=O)N(c2cc(Cl)ccc2-n2cc(Cl)nn2)CC1=O,half-life,[17],> 15 h
same,half-life,[18],> 5 h
same,bioavailability,[19],72.5%
same,half-life,[20],1.5 h
same,EC,Plasma [14],5.3 µM
O=c1cc(-c2c(-n3cnnn3)ccc(Cl)c2F)cc2n1[C@H](c1ccc(-c3ccnc(CO)c3F)[nH]1)CC2,IC50,Coagulation factor XI [5],1.8 nM
same,half-life,[21],3.25 h
same,bioavailability,[22],53.4%
same,IC50,Plasma kallikrein [2],13 nM
same,CL/F,[23],19.6 mL/min/kg
O=C(O)c1ccc(NC(=O)[C@H](CC2=CC=CCC2)n2ccc(-c3cc(Cl)ccc3-n3cnnn3)cc2=O)cc1,Ki,Coagulation factor XI [5],6 nM
C[C@@H]1CCC[C@H](n2cnc(-c3cc(Cl)ccc3-n3cnnn3)cc2=O)c2cc(c3c(n2)OCCO3)-c2c(cnn2C)NC1=O,IC50,Coagulation factor XI [5],10.4 nM
COC(=O)Nc1ccc2c(c1)NC(=O)[C@H](C)CCC[C@H](c1ccc(-c3cc(Cl)ccc3-n3cc(C(F)(F)F)cn3)c[n+]1[O-])c1nc-2c(C)[nH]1,IC50,Coagulation factor XI [5],0.9 nM
same,MRT,[24],11 h
same,IC50,Plasma kallikrein [2],42 nM
O=C(O)c1ccc(NC(=O)[C@H](Cc2ccccc2)N2CCC(c3cc(Cl)ccc3-n3cc(Cl)nn3)=CC2=O)cc1,IC50,Coagulation factor XI [5],1.73 nM
O=C(O)c1cc2cc(NC(=O)[C@@H]3CCc4cc(-c5cc(Cl)ccc5-n5cnnn5)cc(=O)n43)ccc2[nH]1,IC50,Coagulation factor XI [5],6.4 nM
O=C(O)c1cc2cc(NC(=O)[C@H](Cc3ccc(N4CCN(C5CCC(O)CC5)CC4=O)cc3)N3CCN(c4cc(Cl)ccc4-n4cnnn4)C(=O)C3=O)ccc2[nH]1 (stereo not given in full),clearance,[25],33.3 mL/min/kg
same,half-life,[20],0.46 h
same,IC50,Coagulation factor XI [4],1.75 nM
same,EC,Plasma [14],1.1 µM
C[C@@H]1CCC[C@H](n2cnc(-c3cc(Cl)ccc3-n3cc(Cl)nn3)cc2=O)c2cc(ccn2)-c2c(cnn2C(F)F)NC1=O [MILVEXIAN],EC,Plasma [26],0.5 µM
CC(C)c1cc(COc2ccccc2CC(=O)O)cc(-c2ccc3c(c2)[C@H](N)CO3)c1,EC,Plasma [12],9.9 µM
same,EC,Plasma [14],2.2 µM
COC(=O)NCC[C@@H]1Cc2cccc(c2)[C@@H](n2cnc(-c3cc(Cl)ccc3-n3cc(C(F)(F)F)cn3)cc2=O)CCC[C@@H](C)C(=O)N1,Ki,Plasma kallikrein [27],1790 nM
same,Ki,Coagulation factor XI [28],5 nM
Nc1ccc(-c2cnc([C@H](CC3CC3)c3ccc(-c4cc(Cl)ccc4-n4cnnn4)c[n+]3[O-])[nH]2)c(Cl)n1,IC50,Coagulation factor XI [5],0.32 nM
same,IC50,Plasma kallikrein [2],80 nM
